Data on five substances can be found in patent US11312950B2, “3D synthetic tissue hydrogels” (University of Massachusetts, priority 2017, dated 2022).

The subject of experiment [1] is hMSCs. Description: Outgrowth of hMSCs on beads in hydrogels made with a single MMP degradable crosslinker. In kind it is cell-based, human. As to conditions: versus control, non-degradable crosslinker. The method, then:
(§1) Cytodex1 microcarrier beads (Sigma) were swollen in sterile IX PBS (1 g beads/50 mL PBS) and autoclaved for 30 minute at 121° C. Flasks were coated with poly (2-hydroxyethy methacrylate) suspended in ethanol at 20 mg/mL and allowed to evaporate in a biosafety cabinet for 1 hour to make they non-adherent. hMSCs were seeded at 10-50 cells/bead in non-adherent flasks at a 0.1 mL of beads/mL of media. The flask was shaken every 1 hour for 4 hours to ensure coating unto beads. Cells were allowed to grow on beads for 72 hours before seeding into hydrogels. Breast cancer cells were suspended in 4° C., poly(N-isopropylacryamide)-poly(ethylene glycol) (pNIPAAM-PEG, Cosmo Bio) reconstituted in cell culture medium at a density of 167,000 cells/mL of MDA-MB-231s. Gelation occurred after 5 min at 37° C., and gels were swollen in cell culture medium and grown into spheroids for 14 days. pNIPAAm gels were dissolved in cold serum-free DMEM (1% pen/strep) and spheroids transferred to conical tubes placed in ice so that spheroids would settle to the bottom. The supernatant was removed and the spheroids were re-suspended in PEG-maleimide solution. A ratio of 9 3D hydrogels were made for every 150 μL of pNIPAAM-PEG. Hydrogels were prepared with 4-arm PEG-maleimide at a 20 wt % cross-linked at a 1:1 molar ratio with 50% 1.5 K linear PEG-dithiol and 50% of each individual MMP degradable peptide sequence (FIGS. 13A-13C). Gels were imaged at days 1 and 3 and all image analysis was performed in ImageJ (National Institutes of Health).

Another experiment has as its system MDA-MB-231 cells. Description: MDA-MB-231 spheroid growth in hydrogels with one MMP degradable crosslinker. It counts as cell-based, human. As to conditions: spheroid size ratio. The method, then: as §1, with “Gels were imaged at days 1 and 3 and all image analysis was performed in ImageJ (National Institutes of Health).” left out
The next experiment concerns myofibroblasts. As to conditions: cited from earlier work.
Experiment [2] relates to hMSCs. Put plainly: Competitive binding assay: adhesion of hMSCs pre-treated with soluble peptides to a surface with the bone marrow peptide cocktail. It counts as cell-based, human. As to conditions: 30 minutes pretreatment; glass surface with bone marrow integrin-binding peptide cocktail; three donor hMSCs and hTERT MSCs; 2 hours. The method, then:
Cells were seeded at 4000 cells per cm^2 in their normal growth medium after 30 minutes of pretreatment with individual peptides or the complete bone marrow cocktail. Bone marrow was dosed at a molar amount of […] of medium and the molar amount dosed for each peptide was as follows: GRGDSPCG (SEQ ID NO:8)at 600 pmol/mL, CGPHSRNGGGGGGRGDS (SEQ ID NO:14), and […] (SEQ ID NO:18) at 220 pmol/mL, CGP(GPP)5GFOGER(GPP)5 (SEQ ID NO:15), CGGSVVYGLR (SEQ ID NO:13), and GPRGGC (SEQ ID NO:2)at 160 pmol/mL, CSVTCG (SEQ ID NO:4) and […] (SEQ ID NO:5) at 100 pmol/mL, GCGDGEA (SEQ ID NO:1), CSRARKQAASIKVAVADR (SEQ ID NO:3), GCKQLREQ (SEQ ID NO:6), and CGGAEIDGIEL (SEQ ID NO:16) at 60 pmol/mL, and GCDPGYIGSR (SEQ ID NO:7) at 40 pmol/mL. Cells were imaged cells beginning 10 minutes after seeding in an environment controlled Zeiss Axio Observer Z1 microscope (Carl Zeiss) using an AxioCam MRm camera and an EC Plan-Neofluar 20× 0.4 NA air objective. Images were taken using Zen (Carl Zeiss) at five-minute intervals for 2 hours and cell areas were traced in ImageJ (National Institutes of Health).

The next experiment relates to chick arotic cells. As to conditions: cited from earlier work.

Turning to “GCRDGPLGLWARDRCG [MMP-13 crosslinker, di-functional MMP degradable crosslinker peptide designed for MMP 13 (Collagenase-3)]”, the “hMSC cell branching into hydrogel (maximum branch length per bead)” value with hMSCs [1] is given as “No significant hMSC cell branching”. In the experiment on MDA-MB-231 cells, the “degradation of crosslinked gel by MDA-MB-231 spheroids” value (“degradation of crosslinked gel” below) is given as “degradation in the MMP-13 crosslinked gel was observed”.

Turning to “GCRDRPFSMIMGDRCG [MMP-3 crosslinker, di-functional MMP degradable crosslinker peptide designed for MMP 3 (Stromelysin-1)]”, in the experiment with hMSCs [1], the “hMSC cell branching into hydrogel (maximum branch length per bead)” value is recorded as “No significant hMSC cell branching”. Besides, the “degradation of crosslinked gel” value in the experiment on MDA-MB-231 cells was “again not with the MMP 2 and 3 peptides”. Besides, the “ability of MMP peptide to degrade” value in the experiment on myofibroblasts is listed as “ability for these MMP peptides to degrade has been shown”.

Regarding “CGP(GPP)5GFOGER(GPP)5 (CGPGPPGPPGPPGPPGPPGFGERGPPGPPGPPGPPGPP) [collagen I]”, the “cell adhesion (cell area) after pre-treatment with soluble peptide” value in the experiment on hMSCs [2] was “not significantly bound”.

Turning to “GCRDSGESPAYYTADRCG [MMP-2 crosslinker, di-functional MMP degradable crosslinker peptide designed for MMP 2 (Gelatinase A)]”, in the experiment with hMSCs [1], the “hMSC cell branching into hydrogel (maximum branch length per bead)” value is reported as “No significant hMSC cell branching”. Besides, in the experiment on MDA-MB-231 cells, the “degradation of crosslinked gel” value is “again not with the MMP 2 and 3 peptides”. The “ability of MMP peptide to degrade” value with chick arotic cells is “ability for these MMP peptides to degrade has been shown”.

For the substance CGGAEIDGIEL [tenascin C], the “cell adhesion (cell area) after pre-treatment with soluble peptide” value in the experiment with hMSCs [2] is listed as “not significantly bound”.
